Source: patent publication US20130245355A1, “3-HETARYL-SUBSTITUTED PYRROLO[2,3 B]PYRIDINE DERIVATIVES AS PDK1 INHIBITORS” (MERCK PATENT GMBH, priority 2010, published 2013)

Tests used:
PDK1 [1] = target: T1, PDK1 (Homo sapiens, UniProt O15530); experiment: Test for the inhibition of PDK1 (flashplate, 33P-ATP); conditions: His6-PDK1 (1-50) 3.4 nM, 4 μM ATP, 30° C., 60 min; read-out: IC50 [PDK1] biochemical
T1 construct: His6 (N)
T1 sequence (O15530 51-556 limits assumed): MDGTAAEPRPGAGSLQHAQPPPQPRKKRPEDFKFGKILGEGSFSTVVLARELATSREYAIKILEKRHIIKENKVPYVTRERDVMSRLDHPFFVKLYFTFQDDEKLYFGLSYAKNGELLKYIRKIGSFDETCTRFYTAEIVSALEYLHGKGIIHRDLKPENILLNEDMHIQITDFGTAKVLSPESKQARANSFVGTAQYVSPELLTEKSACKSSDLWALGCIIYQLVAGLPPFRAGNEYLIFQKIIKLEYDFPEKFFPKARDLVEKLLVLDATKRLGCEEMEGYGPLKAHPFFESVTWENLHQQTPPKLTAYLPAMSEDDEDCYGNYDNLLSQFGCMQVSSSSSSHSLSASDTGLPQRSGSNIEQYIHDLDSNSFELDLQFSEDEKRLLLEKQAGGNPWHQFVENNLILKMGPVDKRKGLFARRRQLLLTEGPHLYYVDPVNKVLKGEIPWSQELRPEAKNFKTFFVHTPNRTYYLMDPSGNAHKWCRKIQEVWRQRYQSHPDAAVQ
Summary of the method: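 His6-PDK1 (1-50) (3.4 nM) with biotinylated peptide substrate (400 nM) and 4 μM ATP plus ^33P-ATP, 60 min at 30° C; incorporated radioactivity counted. Blank from 100 nM staurosporin subtracted, activity expressed as % of compound-free control, IC50 derived from dilution series.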

PDK1 [2] = target: T2, PDK1 (Homo sapiens, UniProt O15530); experiment: Cellular testing of PDK1 kinase inhibitors in PC3 cells (Luminex, phospho-T308-PKB); assay type: cell-based; conditions: 30 min, serum-free
T2 construct: endogenous in cells; host or cells: PC3 cells
T2 sequence (O15530 1-556): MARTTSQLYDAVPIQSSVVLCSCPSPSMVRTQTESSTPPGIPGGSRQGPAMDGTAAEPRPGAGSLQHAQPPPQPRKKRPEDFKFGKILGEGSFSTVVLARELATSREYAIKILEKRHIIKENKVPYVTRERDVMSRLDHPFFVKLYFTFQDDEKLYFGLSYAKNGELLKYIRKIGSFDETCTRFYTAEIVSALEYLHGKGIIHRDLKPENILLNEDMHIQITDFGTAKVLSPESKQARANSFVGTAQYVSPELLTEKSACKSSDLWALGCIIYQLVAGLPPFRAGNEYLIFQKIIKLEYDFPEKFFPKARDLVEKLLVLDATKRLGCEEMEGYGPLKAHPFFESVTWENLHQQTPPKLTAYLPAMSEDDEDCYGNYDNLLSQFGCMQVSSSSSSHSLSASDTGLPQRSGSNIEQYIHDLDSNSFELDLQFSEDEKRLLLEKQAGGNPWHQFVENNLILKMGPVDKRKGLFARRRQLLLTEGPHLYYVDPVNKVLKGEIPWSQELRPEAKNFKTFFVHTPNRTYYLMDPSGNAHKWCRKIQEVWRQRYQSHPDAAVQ
Summary of the method: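 PC3 cells were treated 30 min serum-free with 7-concentration compound series, lysed, and phospho-T308-PKB measured by Luminex bead assay (anti-total PKB capture, phospho-T308 detection). Blank was 10 μM staurosporine; maximum was 0.3% DMSO; IC50 derived from percent of control.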

| Structure (SMILES) | IC50 (PDK1 [1]) [nM] | IC50 (PDK1 [2]) [nM] |
| --- | --- | --- |
| CC(O)(c1cc(-c2c[nH]c3ncc(-c4cnn(CC(=O)N5CCCCC5)c4)cc23)no1)c1ccccc1F (stereo not drawn) [A12] | 0.5 to 1000 | 0.5 to 1000 |
| Cn1cc(-c2cnc3[nH]cc(-c4n[nH]c(Cc5ccccc5F)n4)c3c2)cn1 [A15] | 0.5 to 1000 | 1000 to 10000 |
| Cn1cc(-c2cnc3[nH]cc(-c4cc(C(O)c5ccccc5)nn4CCO)c3c2)cn1 (stereo not drawn) [A107] | 0.5 to 1000 | 1000 to 10000 |
| Cn1cc(-c2cnc3[nH]cc(-c4nnc(C(O)c5ccccc5F)o4)c3c2)cn1 (stereo not drawn) [A43] | 0.5 to 1000 | 1000 to 10000 |
| C=C(c1cc(-c2c[nH]c3ncc(-c4cnn(C)c4)cc23)n[nH]1)c1ccccc1F [A28] | 0.5 to 1000 | 1000 to 10000 |
| Cn1cc(-c2cnc3[nH]cc(-c4nc(C(C)(O)c5cccc(F)c5F)no4)c3c2)cn1 (stereo not drawn) [A78] | 0.5 to 1000 | 0.5 to 1000 |
| Cn1cc(-c2cnc3[nH]cc(-c4nnc(C(C)(O)c5ccccc5)o4)c3c2)cn1 (stereo not drawn) [A45] | 0.5 to 1000 | 1000 to 10000 |
| Cn1cc(-c2cnc3[nH]cc(-c4nnc(C(N)c5ccccc5Cl)o4)c3c2)cn1 (stereo not drawn) [A118] | 0.5 to 1000 | 0.5 to 1000 |
| Cn1cc(-c2cnc3[nH]cc(-c4csc(Cc5cccc(F)c5F)n4)c3c2)cn1 [A9] | 1000 to 10000 | 1000 to 10000 |
| Cn1cc(-c2cnc3[nH]cc(-c4nnc([C@H](N)c5ccccc5Cl)o4)c3c2)cn1 [A112] | 0.5 to 1000 | 0.5 to 1000 |
| Cn1cc(-c2cnc3[nH]cc(-c4nnc(C(F)c5cccc(F)c5)o4)c3c2)cn1 (stereo not drawn) [A82] | 1000 to 10000 | 1000 to 10000 |
| Cn1cc(-c2cnc3[nH]cc(-c4nnc([C@@H](O)c5ccccc5Cl)o4)c3c2)cn1 (single isomer, unassigned) [A130] | 0.5 to 1000 | 0.5 to 1000 |
